Measurements published in patent US4052515A, “Method of treating acne with alcohol” (priority 1976, dated 1977).

Assays:
[1] = system: Pityrosporum ovale whole cell lipase activity; assay: Whole cell lipase activity, pH stat; format: cell-based; conditions: for Percent Inhibition Tributyrin / Percent Inhibition Triolein: P. Ovale, alcohol 0.5mMoles; for Percent Inhibition Tributyrin: tributyrin substrate; for Percent Inhibition Triolein: triolein substrate; for Inhibitory activity against different types and strains of skin microorganisms and substrates: summary in words over all strains and both substrates
Description: Cells from three strains of C.Acnes and one strain of Pityrosporum ovale are collected and whole cells used to measure lipase activity. Tributyrin and triolein are used as substrates by dispersing them in a histidine-buffered system by sonication and measuring the acid changes with a pH stat. Alcohols are added to the substrate at a level of 0.5mMoles.

[2] = system: P. Ovale cells and artificial sebum lipid; assay: Irritation by artificial sebum plus P. Ovale cells on guinea pig back; format: in vivo, guinea pigs; conditions: for Average Irritation Grade: graded after 5 days, scale 0-4, 4 most severe, 0% control 2.0; for Reduction of irritation produced by P. Ovale cells and artificial sebum lipid: summary in words
Description: (§1) A lipid mixture resembling human sebum in composition, but lacking free fatty acids, is applied to the back of guinea pigs along with an inoculum of P. Ovale cells. Alcohol is added to the artificial sebum lipid at concentrations of 1 and 5%. Irritation is graded after 5 days on a scale of 0-4, 4 being most severe.

[3] = Topical application of compositions to skin affected by acne; format: in vivo; conditions: 3 to 10 milligrams composition per square centimeter of skin, about 3 weeks
Excerpt: When treating acne it is preferred that a regimen involving multiple applications of the composition over a period of days or weeks be employed. The amount of the composition applied to the affected areas which constitutes an effective amount will vary depending on the particular person and degree of acne. It is preferred that the composition be applied to the affected areas at a rate of 3 milligrams of composition per square centimeter to 10 milligrams composition per square centimeter of treated tissue.
The above compositions show an anti-acne effect when topically applied to skin areas so affected at a rate of between 3 to 10 milligrams composition per square centimeter of skin over a period of about 3 weeks.

[4] = system: Corynebacterium acne lysate supernatant lypolytic activity; assay: Lypolytic activity of C. acne lysate supernatant, tributyrin turbidity; format: biochemical; conditions: for Percent Inhibition C. Acne: tributyrin 0.05% substrate, initial rates of turbidity change; for Effect on inhibiting the hydrolysis of the tributyrin: summary in words for C. acne and comedo homogenate
Description: Cells of a pure culture of Corynebacterium acne are collected, lysed in 0.05M phosphate buffer and centrifuged. The resultant supernatant is also used to measure lypolytic activity.
(§2) Tributyrin (0.05%) is dispersed in the phosphate buffered solutions by sonication, the alcohol is added, and then an aliquot of the enzyme solution added. The decrease in turbidity is measured spectrophotometrically. Inhibitory activity is determined by comparing initial rates of change.

[5] = system: Comedo homogenate lypolytic activity; assay: Lypolytic activity of comedo homogenate supernatant, tributyrin turbidity; format: biochemical; conditions: tributyrin 0.05% substrate
Description: Comedones are collected from the face of subjects with varying degrees of acne and homogenized in 0.05M phosphate buffer, pH 8.1. The mixture is centrifuged and the supernatant is used to measure lypolytic activity.
as §2

[6] = system: P. Ovale cells and artificial sebum lipid; assay: Parallel experiment: irritation and free fatty acid in artificial sebum after 5 days; format: in vivo, guinea pigs; conditions: for Irritation Grade: after 5 days, control 3; for % Free Fatty Acids: lipids extracted after 5 days, control 12.5
Description: as §1
In a parallel experiment, 1-octanol is mixed in the artificial sebum in varying ratios. After 5 days the lipids are extracted and the quantity of free fatty acid determined.

[7] = Stoler disclosure; cited from earlier work
[8] = 1.0% alcohol in artificial sebum
[9] = 5.0% alcohol in artificial sebum

SMILES: CCCCCCCCCCO [1-decanol]
- Percent Inhibition Tributyrin [1]: 63%
- Percent Inhibition Triolein [1]: 24%
- Inhibitory activity against different types and strains of skin microorganisms and substrates [1]: broad inhibitory activity
- Average Irritation Grade [2, 8]: 1.3
- Average Irritation Grade [2, 9]: 0.6
- Reduction of irritation produced by P. Ovale cells and artificial sebum lipid [2]: able to reduce the irritation
- Anti-acne effect [3]: substantially the same results

SMILES: CC(C)O [isopropanol]
- Anti-acne effect [3]: substantially the same results

SMILES: CCCCCCCCO [1-octanol]
- Percent Inhibition C. Acne ([4]; 0.03% alcohol): 63%
- Percent Inhibition C. Acne ([4]; 0.1% alcohol): 100%
- Effect on inhibiting the hydrolysis of the tributyrin [4]: positive effect
- Percent Inhibition Comedo Homogenate ([5]; 0.03% alcohol): 20%
- Percent Inhibition Comedo Homogenate ([5]; 0.1% alcohol): 27%
- Percent Inhibition Tributyrin [1]: 60%
- Percent Inhibition Triolein [1]: 12%
- Inhibitory activity against different types and strains of skin microorganisms and substrates [1]: broad inhibitory activity
- Average Irritation Grade [2, 8]: 0
- Average Irritation Grade [2, 9]: 0.6
- Reduction of irritation produced by P. Ovale cells and artificial sebum lipid [2]: able to reduce the irritation
- Irritation Grade ([6]; alcohol concentration 0.5): 2
- % Free Fatty Acids ([6]; alcohol concentration 0.5): 2.5%
- Irritation Grade ([6]; alcohol concentration 1.0): 2
- % Free Fatty Acids ([6]; alcohol concentration 1.0): 1.7%
- Irritation Grade ([6]; alcohol concentration 5.0): 0.5
- % Free Fatty Acids ([6]; alcohol concentration 5.0): 2.5%

SMILES: CCCCO [1-butanol, reference compound]
- Percent Inhibition C. Acne ([4]; 0.1% alcohol): 0%
- Effect on inhibiting the hydrolysis of the tributyrin [4]: no measurable effect
- Percent Inhibition Comedo Homogenate ([5]; 0.1% alcohol): 0%

SMILES: CCCCCCCCCCCCO [1-dodecanol]
- Average Irritation Grade [2, 8]: 1.3
- Average Irritation Grade [2, 9]: 1.0
- Reduction of irritation produced by P. Ovale cells and artificial sebum lipid [2]: able to reduce the irritation
- Anti-acne effect [3]: substantially the same results

SMILES: CCCCCCC(C)O (centres unmarked) [2-octanol]
- Anti-acne effect [3]: substantially the same results

SMILES: CCCO [Propanol]
- Anti-acne effect [3]: substantially the same results

SMILES: CCC=CCCO [3-hexen-1-ol]
- Anti-acne effect [3]: substantially the same results

SMILES: OCc1ccccc1 [benzyl alcohol]
- Anti-acne agent [7]: an effective anti-acne agent
- Inhibition of the formation of free fatty acids [7]: effective in inhibiting the formation of free fatty acids

SMILES: CCCCCCC=CCCO [3-decen-1-ol]
- Anti-acne effect [3]: substantially the same results
